The text below walks through data of paper PMC4229968, “The Inhibition of the Components from Shengmai Injection towards UDP-Glucuronosyltransferase” (Evidence-based Complementary and Alternative Medicine : eCAM, 2014).

Holding throughout (assay type): in vitro ADME
The target in series [1] is T1, UGT2B7 (Homo sapiens, UniProt P16662).
T1 construct: purchased BD Gentest Corp. (Woburn, MA, USA); host or cells: baculovirus-infected insect cells
T1 sequence (P16662 24-529): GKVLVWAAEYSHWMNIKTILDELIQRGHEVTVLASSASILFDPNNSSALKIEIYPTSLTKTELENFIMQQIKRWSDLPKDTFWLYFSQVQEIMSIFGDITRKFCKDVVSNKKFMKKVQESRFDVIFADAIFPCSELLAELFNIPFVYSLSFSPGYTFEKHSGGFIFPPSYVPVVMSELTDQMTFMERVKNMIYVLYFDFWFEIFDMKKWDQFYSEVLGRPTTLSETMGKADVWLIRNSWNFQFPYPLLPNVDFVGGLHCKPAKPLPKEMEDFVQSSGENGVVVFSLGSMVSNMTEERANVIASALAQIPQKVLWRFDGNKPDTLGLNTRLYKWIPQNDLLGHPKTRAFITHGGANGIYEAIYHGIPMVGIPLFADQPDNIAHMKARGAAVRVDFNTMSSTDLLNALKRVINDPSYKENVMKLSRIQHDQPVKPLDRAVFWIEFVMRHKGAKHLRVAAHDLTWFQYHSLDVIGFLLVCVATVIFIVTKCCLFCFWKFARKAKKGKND
Description: Recombinant UGT2B7-catalyzed 4-MU glucuronidation inhibition. To be noted: pH 7.4, probe 4-methylumbelliferone (4-MU), UGT2B7, 100 μM of compound, 4-MU substrate, read-out: residual activity. From the text:
(§1) 4-Methylumbelliferone (4-MU), 4-methylumbelliferone-β-D-glucuronide (4-MUG), Tris-HCl, 7-hydroxycoumarin, and uridine-5′-diphosphoglucuronic acid (UDPGA) (trisodium salt) were purchased from Sigma-Aldrich (St. Louis, MO). Recombinant human UGT isoforms (UGT1A1, UGT1A3, UGT1A4, UGT1A6, UGT1A7, UGT1A8, UGT1A9, UGT1A10, UGT2B4, UGT2B7, and UGT2B15) expressed in baculovirus-infected insect cells were obtained from BD Gentest Corp. (Woburn, MA, USA). Ophiopogonin D (OD), ophiopogonin D′ (OD′), methylophiopogonanone A (MA), methylophiopogonanone B (MB), and ruscorectal (RU) were purchased from Sichuan Weikeqi Biotechnology Company (Chengdu, Sichuan, China). The purity of these compounds was above 95%. All other reagents were of HPLC grade or of the highest grade commercially available.
(§2) 4-MU, the nonspecific probe substrate for all the UGT isoforms except UGT1A4, was used in the present study to initially screen the inhibition potential of maidong's components towards UGT isoforms as previously reported. In brief, the incubation system (total volume = 200 μL) consisted of recombinant UGTs, 5 mM UDPGA, 5 mM MgCl2, 50 mM Tris-HCl (pH = 7.4), and 4-MU in the absence or presence of different concentrations of maidong's components. The compounds were dissolved in DMSO, and the final concentration of DMSO was below 0.5% (v/v). The used incubation time and protein concentration were previously determined to ensure the reaction rate within the linear range. The 4-MU concentration was equal to known K m or S 50 values for each UGT isoform. After 5 min preincubation at 37°C, the incubation reaction was initiated via adding UDPGA to the mixture system. The reactions were quenched by adding 100 μL acetonitrile with 7-hydroxycoumarin (100 μM) as internal standard. Centrifuged at 20000 ×g for 10 min, an aliquot of supernatant was transferred to an autoinjector vial for HPLC analysis. The HPLC system (Shimadzu, Kyoto, Japan) contained a SCL-10A system controller, two LC-10AT pumps, a SIL-10A autoinjector, and a SPD-10AVP UV detector. Chromatographic separation was carried out using a C18 column (4.6 × 200 mm, 5 μm, Kromasil) at a flow rate of 1 mL/min and UV detector at 316 nm. The mobile phase consisted of acetonitrile (A) and H2O containing 0.5% (v/v) formic acid (B). The following gradient condition was used: 0–15 min, 95–40% B; 15–20 min, 10% B; 20–30 min, 95% B.

Series [2] has as its target T2, UGT2B15 (Homo sapiens, UniProt P54855).
T2 construct: purchased BD Gentest Corp. (Woburn, MA, USA); host or cells: baculovirus-infected insect cells
T2 sequence (P54855 24-530): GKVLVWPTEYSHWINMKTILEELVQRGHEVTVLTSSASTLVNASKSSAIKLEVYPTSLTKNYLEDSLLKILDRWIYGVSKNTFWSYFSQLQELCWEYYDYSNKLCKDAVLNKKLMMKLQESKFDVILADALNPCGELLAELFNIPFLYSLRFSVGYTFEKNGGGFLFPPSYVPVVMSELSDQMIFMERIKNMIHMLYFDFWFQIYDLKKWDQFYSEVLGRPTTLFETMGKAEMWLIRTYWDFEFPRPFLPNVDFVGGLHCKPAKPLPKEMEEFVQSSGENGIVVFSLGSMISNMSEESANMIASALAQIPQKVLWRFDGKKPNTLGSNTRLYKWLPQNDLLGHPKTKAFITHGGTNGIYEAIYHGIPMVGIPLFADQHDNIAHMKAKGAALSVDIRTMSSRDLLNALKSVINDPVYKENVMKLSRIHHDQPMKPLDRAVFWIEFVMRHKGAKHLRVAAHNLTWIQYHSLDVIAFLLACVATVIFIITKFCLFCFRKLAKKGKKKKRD
Briefly: Recombinant UGT2B15-catalyzed 4-MU glucuronidation inhibition. Conditions: pH 7.4, probe 4-methylumbelliferone (4-MU), UGT2B15, 100 μM of compound, 4-MU substrate, read-out: residual activity.
Text: as §1, §2

The target in series [3] is T3, UGT1A8 (Homo sapiens, UniProt Q9HAW9).
T3 construct: purchased BD Gentest Corp. (Woburn, MA, USA); host or cells: baculovirus-infected insect cells
T3 sequence (Q9HAW9 26-530): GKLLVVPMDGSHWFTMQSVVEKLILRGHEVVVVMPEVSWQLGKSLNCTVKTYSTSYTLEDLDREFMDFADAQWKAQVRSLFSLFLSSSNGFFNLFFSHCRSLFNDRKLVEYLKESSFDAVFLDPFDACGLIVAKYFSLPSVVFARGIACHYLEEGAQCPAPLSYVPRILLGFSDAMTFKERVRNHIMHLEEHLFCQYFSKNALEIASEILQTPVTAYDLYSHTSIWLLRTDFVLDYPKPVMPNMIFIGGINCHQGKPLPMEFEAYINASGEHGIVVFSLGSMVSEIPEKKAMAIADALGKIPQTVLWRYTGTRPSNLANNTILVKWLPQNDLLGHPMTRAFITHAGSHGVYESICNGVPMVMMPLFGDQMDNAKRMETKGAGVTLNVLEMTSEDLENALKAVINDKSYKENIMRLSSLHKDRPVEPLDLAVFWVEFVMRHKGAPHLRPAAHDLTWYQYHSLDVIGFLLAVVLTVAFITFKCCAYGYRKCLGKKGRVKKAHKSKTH
Description: Recombinant UGT1A8-catalyzed 4-MU glucuronidation inhibition. To be noted: for activity at 100 µM: UGT1A8, 100 μM of compound, 4-MU substrate, read-out: residual activity.
Text: as §1, §2
To determine the inhibition kinetic type and parameters (K i), the reaction velocity (V) was determined at multiple concentrations of maidong's components and 4-MU (or TFP). Dixon plot and Lineweaver-Burk plot were used to fit the data. The inhibition kinetic type was evaluated through determining the intersection point in the Dixon and Lineweaver-Burk plots.
K m value is the substrate concentration in which the velocity reached half of the maximum velocity (V max) of the reaction. K i value is the inhibition constant.

Setting [4] is: human, pH 7.4, probe 4-methylumbelliferone (4-MU).

As for `Cc1c(O)c(C)c2c(c1O)C(=O)[C@H](Cc1ccc3c(c1)OCO3)CO2` [MA, methylophiopogonanone A], the activity at 100 µM in series [1] amounted to 23.3 ± 16.7%; in series [2] it was 23.8 ± 2.8%; in series [3] (setting [4]), 20.5 ± 2.1%.

In the case of `COc1ccc(C[C@@H]2COc3c(C)c(O)c(C)c(O)c3C2=O)cc1` [MB, methylophiopogonanone B], the activity at 100 µM in series [1] is 82.8 ± 14.5%; in series [2], 56.1 ± 9.8%; in series [3] (setting [4]), 85 ± 4.5%.

As for `C[C@@H]1CC[C@@]2(OC1)O[C@H]1C[C@H]3[C@@H]4CC=C5C[C@@H](O)C[C@@H](O[C@@H]6O[C@H](C)[C@H](O)[C@H](O[C@@H]7OC[C@@H](O)[C@H](O)[C@H]7O)[C@H]6O[C@@H]6O[C@@H](C)[C@H](O)[C@@H](O)[C@H]6O)[C@]5(C)[C@H]4CC[C@]3(C)[C@H]1[C@@H]2C` [OD, ophiopogonin D], the results for the activity at 100 µM in series [1], in series [2] and in series [3] (setting [4]) were 85.4 ± 7.3%, 36.9% and 17.3 ± 0.9%, respectively. Also, the inhibitory constant (Ki) in series [3] was found to be 40.1 µM. For the same compound, in series [3] (UGT1A8, Dixon and Lineweaver-Burk plots), the inhibition type entry was “competitively inhibited”. Further, the inhibition at 100 µM in series [3] (human, pH 7.4, probe 4-methylumbelliferone (4-MU), UGT1A8, at 100 μM, read-out: inhibition percent) turned out to be 82.7%.

As for `C[C@@H]1CC[C@@]2(OC1)O[C@H]1C[C@H]3[C@@H]4CC=C5C[C@@H](O[C@@H]6O[C@H](CO)[C@@H](O)[C@H](O[C@@H]7OC[C@@H](O)[C@H](O)[C@H]7O)[C@H]6O[C@@H]6O[C@@H](C)[C@H](O)[C@@H](O)[C@H]6O)CC[C@]5(C)[C@H]4CC[C@]3(C)[C@H]1[C@@H]2C` [OD′, ophiopogonin D′], the results for the activity at 100 µM in series [1], in series [2] and in series [3] (setting [4]) were 77.4 ± 7.1%, 35.5 ± 1.7% and 18.9 ± 6.6%, respectively.

As to `CC1CCC2(OC1)OC1CC3C4CC=C5CC(O)CC(O)C5(C)C4CCC3(C)C1C2C` (stereo not drawn) [RU, ruscorectal], the figures for the activity at 100 µM in series [1], in series [2] and in series [3] (setting [4]) were 125 ± 59%, 55.5 ± 19.6% and 72 ± 3%, respectively.

For orientation: Ki means the dissociation constant of the complex between target and ligand, obtained from inhibition or displacement. The term inhibition denotes the percentage by which the read-out fell short of the control.
